Experimental data published in patent publication US20100094430A1, “Device” (priority 2006, published 2010).

Test: Solubility of precursor compounds in methanol
Assay type: physicochemical
Procedure: Ca(dbm)2.4H2O (1 g) was weighed into a 250 mL conical flask. Methanol (50 mL) was added, the flask was stoppered and the solution was swirled for […]2 min. The solution was incubated in a water bath at varying temperatures (20°, 30° or 40° C.) for a period of 4 or 17 h. At the end of the incubation period, two 20 mL aliquots of the solution were filtered into separate, pre-weighed round bottomed flasks. […] Experiments for all conditions were carried out in duplicate. The results of the solubility experiments are compiled in Table 2.

solubility in methanol (incubation 20° C., 4 h): 1.78 ± 0.1 g/100 mL | solubility in methanol (incubation 20° C., 17 h): 1.91 ± 0.5 g/100 mL | solubility in methanol (incubation 30° C., 4 h): 1.86 ± 0.1 g/100 mL | solubility in methanol (incubation 30° C., 17 h): 1.88 ± 0.5 g/100 mL | solubility in methanol (incubation 40° C., 4 h): 1.98 ± 0.2 g/100 mL | solubility in methanol (incubation 40° C., 17 h): 1.92 ± 0.4 g/100 mL | solubility in methanol relative to the acac and benzoylacetone calcium complexes (qualitative comparison): higher solubility
Compound: O.O.O.O.O=C(C=C([O-])c1ccccc1)c1ccccc1.O=C(C=C([O-])c1ccccc1)c1ccccc1.[Ca+2] [Ca(dbm)2•4H2O, Ca(dbm)2.4H2O]
